# Results: patent US6156291A, “Chemical and pharmacological standardization of herbal extracts” (CV Technologies Inc., priority 1998, dated 2000)
# “Also recorded” adds a separate entry of the source.
# What was measured:
# [1] = pure ginsenosides; literature; cited from earlier work
# rat brain synaptosomes [2] = assay: choline uptake in rat brain synaptosomes; format: biochemical; details: for effect on choline uptake (FIG. 1): various doses, rat brain synaptosomes
# From the text: (1) Effects of CVT-E001 on choline uptake in isolated brain synaptosomes in rats
# (§1) Choline uptake has been examined in synaptosome preparations from whole brain and hippocampus in the presence of Rb1, CVT-E001 and HC3.
# The magnitude of these effects are consistent with the previous studies.
# rat brain synaptosomes [3] = details: literature (Benishin, 1992); Rb1 positive control, HC3 negative control; cited from earlier work
# [4] = test system: dorsal and sympathetic ganglia; details: literature (Saito 1985), cited from earlier work; for neurite outgrowth by NGF: in presence of NGF; for neurite outgrowth without NGF: on its own
# [5] = test system: synaptosomes prepared from rat hippocampus; assay: choline uptake into synaptosomes prepared from rat hippocampus; format: biochemical; details: Table 2
# From the text: as §1
# This observation is not unexpected as many pharmacological compounds have an optimal dose range and more or less of the material results in less biological activity.
# [6] = Morris Water Maze and Scopolamine induced Amnesia Model; format: in vivo, rat
# From the text: As CVT-E001 is a mixture of ginsenosides, it may not have the same properties as pure saponins. […] Rats are required to learn the location of a hidden platform in a murky swimming pool. […] The effects of CVT-E001 on memory can also be examined in scopolamine induced amnesia (scopolamine interferes with the cholinergic neurotransmitter system and impedes learning and memory). If CVT-E001 enhances learning and/or memory it should facilitate task acquisition and/or protect against memory loss in scopolamine treated animals.
# A study was designed of spatial learning and memory using the Morris water maze and scopolamine induced amnesia with CVT-E001 as the test compound. The specific aim of the experiment was to test if CVT-E001 affected the acquisition and/or retention of a new task in the presence of scopolamine induced amnesia. Rats (S/D strain males, 200-250 g, about 8 weeks old) are initially divided into two groups and fed either water (0.5 ml) or CVT-E001 (200 mg/kg/day in 0.5 ml water by gavage) for the duration of the experiment. Eight days after the initiation of CVT-E001 administration rats are given the task of learning the position of a platform hidden in a pool of murky water. The rats are placed in the pool 4 times per day for 5 days and the time required to find the platform in recorded (maximum duration 5 minutes). This time becomes shorter as the rats learn the task. On day 14 the two groups of rats are further subdivided into four groups. Six rats from each of the initial two groups receive saline injections while the remaining six rats from each initial group receive scopolamine (2 mg/kg) prior to being required to find the platform which has been moved to a new location (3 trials, maximum duration 3 minutes within 30 minutes of receiving either saline or scopolamine injection. On day 15 the procedure for day 14 was repeated with the platform remaining located in the position designated on day 14. On day 16, the procedure from day 14 was again followed except that the platform was moved to a location on the opposite side of the pool. On day 17 the procedure followed on day 14 was repeated except that the platform remains in the location designated on day 16. In each instance the time to locate the platform is recorded.
# This experiment was repeated twice using 24 rats each time. The data from the two experiments was combined. One CVT-E001 treated rat died from accidental administration of CVT-E001 into the lungs.
# Statistical analysis was by analysis of variance on log transformed data. As a posteriori test of significance were performed using the Newman-Keulstest.
# [7] = test system: PC12 (pheochromocytoma) cell lines; details: literature; cited from earlier work
# [8] = test system: PC12 (pheochromocytoma) cell lines; assay: neurite outgrowth in PC12 cells; format: cell-based; details: seven days after treatment; FIGS. 26, 27
# Procedure: PC12 cells were seeded and maintained in 100 cm^2 tissue culture dishes at 37° C. in RRMI1640 containing 1% antibiotics, 10% heated inactivated horse serum and 5% fetal bovine serum in a water saturated atmosphere of 95% air and 5% CO2. NIE-115 cells were maintained in a flask in 90% DMEM (Dulbecco's Modified Eagle Medium, Gibco, Grand Island, N.Y., USA) with 10% FBS and antibiotic PNS (penicillin, neomycin streptomycin). The culture plates were maintained in a temperature-controlled (37° C.) humidified atmosphere consisting of 95% room air and 5% CO2. The cells were mechanically dislodged for the experiment by forceful aspiration of the medium through a Pasteur pipette and plated in 35 mm collagen-coated tissue culture dishes containing a total of 2.0 ml of complete medium at a density of 1×10^4 cells/ml. […]
# The cellular response to Nerve Growth Factor (NGF) and samples were determined by counting the number of cells contained processes in PC12 cells. […]
# The cells and neurites were counted as follows.
# Cells with circular or global shapes and no neurite outgrowth were scored as 0 (S0).
# Cells with more than two small neurites on the cell bodies were scored as S2.
# Cells with one or two neurites with the length of at least two times diameter as their body were scored as S3.
# Cells with more than two long neurites were scored as S4.
# The neurite index was calculated as below: […]
Molecule,learning and memory [1],effect on choline uptake (FIG. 1) (rat brain synaptosomes [2]),"choline uptake, previously demonstrated (rat brain synaptosomes [3])",neurite outgrowth by NGF [4],neurite outgrowth without NGF [4],other results
"CC(C)=CCC[C@](C)(O[C@@H]1O[C@H](CO)[C@@H](O)[C@H](O)[C@H]1O)[C@H]1CC[C@]2(C)[C@@H]1[C@H](O)C[C@@H]1[C@@]3(C)CC[C@H](O)C(C)(C)[C@@H]3[C@@H](O[C@@H]3O[C@H](CO)[C@@H](O)[C@H](O)[C@H]3O)C[C@]12C [Rg1, ginsenoside Rg1]",enhance learning and memory; also recorded: improve memory in experimental animals,–,–,–,–,–
C[N+]1(C)CCOC(O)(c2ccc(-c3ccc(C4(O)C[N+](C)(C)CCO4)cc3)cc2)C1 (stereo not shown) [HC3],–,inhibits choline uptake,inhibit choline uptake,–,–,–
"CC(C)=CCC[C@](C)(O[C@@H]1O[C@H](CO[C@@H]2O[C@H](CO)[C@@H](O)[C@H](O)[C@H]2O)[C@@H](O)[C@H](O)[C@H]1O)[C@H]1CC[C@]2(C)[C@@H]1[C@H](O)C[C@@H]1[C@@]3(C)CC[C@H](O[C@@H]4O[C@H](CO)[C@@H](O)[C@H](O)[C@H]4O[C@@H]4O[C@H](CO)[C@@H](O)[C@H](O)[C@H]4O)C(C)(C)[C@@H]3CC[C@]12C [Rb1, ginsenoside Rb1]",enhance learning and memory; also recorded: improve memory in experimental animals,promotes choline uptake,increase choline uptake into synaptosomes,enhance neurite outgrowth of dorsal and sympathetic ganglia,no effect on its own,"stimulation of choline uptake (in words) (rat brain synaptosomes [2]; Table 3): significantly stimulate choline uptake; potency ranking, choline uptake (rat brain synaptosomes [2]; Table 3, CVT-E001 contains 8.1% Rb1, 32.4% total ginsenosides, n = 4): CVTE001 > TS > Rb1; choline uptake (in words) [5]: increase choline uptake"
"CC(C)=CCC[C@](C)(O[C@@H]1O[C@H](CO)[C@@H](O)[C@H](O)[C@H]1O)[C@H]1CC[C@]2(C)[C@@H]1[C@H](O)C[C@@H]1[C@@]3(C)CC[C@H](O[C@@H]4O[C@H](CO)[C@@H](O)[C@H](O)[C@H]4O[C@@H]4O[C@H](CO)[C@@H](O)[C@H](O)[C@H]4O)C(C)(C)[C@@H]3CC[C@]12C [Rd, ginsenoside Rd]",–,–,–,enhance neurite outgrowth of dorsal and sympathetic ganglia,no effect on its own,–
CN1[C@@H]2C[C@@H](OC(=O)[C@H](CO)c3ccccc3)C[C@H]1[C@@H]1O[C@@H]12 [scopolamine],–,–,–,–,–,"latency remembering platform location, combined trials ([6]; day 15, scopolamine 2 mg/kg, CVT-E001 200 mg/kg/day, FIG. 19): significantly greater latency than all other groups; latency to second new platform location, trial 3 ([6]; day 16, scopolamine 2 mg/kg, FIG. 20): demonstrated a scopolamine induced learning deficit; latency remembering second platform location, first trial ([6]; day 17, scopolamine 2 mg/kg with or without CVT-E001 200 mg/kg/day, FIG. 22): significantly impaired; latency remembering second platform location, combined trials ([6]; day 17, scopolamine 2 mg/kg with or without CVT-E001 200 mg/kg/day, FIG. 23): demonstrate a learning deficit"
"NGF: Nerve Growth Factor, prototype neurotrophin",–,–,–,–,–,PC12 response to NGF treatment [7]: neurite outgrowth and electrical excitability; neurite outgrowth in PC12 [8]: increased neurite outgrowth in PC12 in a dose-dependent manner
